Source: ChEMBL document CHEMBL1909046, “DrugMatrix in vitro pharmacology data”

Key:
Cytochrome P450 3A4 = Cytochrome P450 3A4 (Homo sapiens, UniProt P08684); conditions: bti-tn-5b1-4
Glucocorticoid receptor = target: T1, Glucocorticoid receptor (Homo sapiens, UniProt P04150); conditions: hela s3
T1 sequence (P04150 whole entry): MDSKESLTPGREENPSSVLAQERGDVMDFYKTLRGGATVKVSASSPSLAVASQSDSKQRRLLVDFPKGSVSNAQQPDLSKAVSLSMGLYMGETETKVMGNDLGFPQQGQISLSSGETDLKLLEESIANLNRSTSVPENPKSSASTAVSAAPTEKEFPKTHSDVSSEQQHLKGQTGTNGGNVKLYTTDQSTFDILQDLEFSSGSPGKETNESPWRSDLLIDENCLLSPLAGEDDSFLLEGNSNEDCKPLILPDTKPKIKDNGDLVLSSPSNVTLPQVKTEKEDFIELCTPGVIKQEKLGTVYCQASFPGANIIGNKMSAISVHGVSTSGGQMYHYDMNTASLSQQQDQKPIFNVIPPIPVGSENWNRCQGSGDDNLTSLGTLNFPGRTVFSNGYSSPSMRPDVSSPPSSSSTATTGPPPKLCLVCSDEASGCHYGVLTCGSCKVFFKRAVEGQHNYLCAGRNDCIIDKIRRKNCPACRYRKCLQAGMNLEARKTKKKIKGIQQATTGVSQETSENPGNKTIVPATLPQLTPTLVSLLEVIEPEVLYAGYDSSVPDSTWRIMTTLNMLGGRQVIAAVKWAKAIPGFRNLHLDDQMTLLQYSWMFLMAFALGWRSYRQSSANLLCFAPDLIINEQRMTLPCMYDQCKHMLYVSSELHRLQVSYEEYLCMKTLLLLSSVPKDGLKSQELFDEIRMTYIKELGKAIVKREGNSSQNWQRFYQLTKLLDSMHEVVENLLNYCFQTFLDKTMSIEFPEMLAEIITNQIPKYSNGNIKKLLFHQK

Cytochrome P450 1A2 = target: T2, Cytochrome P450 1A2 (Homo sapiens, UniProt P05177); conditions: bti-tn-5b1-4
T2 sequence (P05177 whole entry): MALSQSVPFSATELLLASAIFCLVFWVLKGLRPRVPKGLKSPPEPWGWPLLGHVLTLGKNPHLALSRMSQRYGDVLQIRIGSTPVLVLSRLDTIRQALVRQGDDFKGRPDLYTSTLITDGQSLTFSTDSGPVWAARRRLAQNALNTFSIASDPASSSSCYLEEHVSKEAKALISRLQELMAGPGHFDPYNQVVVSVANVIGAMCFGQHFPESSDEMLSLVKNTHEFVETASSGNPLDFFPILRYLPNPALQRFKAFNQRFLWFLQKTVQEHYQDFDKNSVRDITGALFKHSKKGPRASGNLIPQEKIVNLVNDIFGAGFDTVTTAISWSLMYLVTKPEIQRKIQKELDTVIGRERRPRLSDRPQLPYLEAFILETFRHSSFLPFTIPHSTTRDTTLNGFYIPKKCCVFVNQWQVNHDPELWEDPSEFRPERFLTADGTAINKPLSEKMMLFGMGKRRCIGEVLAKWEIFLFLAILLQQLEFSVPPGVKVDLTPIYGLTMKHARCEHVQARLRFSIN

Cytochrome P450 2C19 = Cytochrome P450 2C19 (Homo sapiens, UniProt P33261); conditions: bti-tn-5b1-4
Cytochrome P450 2C9 = Cytochrome P450 2C9 (Homo sapiens, UniProt P11712); conditions: bti-tn-5b1-4
Cytochrome P450 2D6 = Cytochrome P450 2D6 (Homo sapiens, UniProt P10635); conditions: bti-tn-5b1-4
Estrogen receptor beta = Estrogen receptor beta (Homo sapiens, UniProt Q92731); conditions: sf9
[1] = target: Voltage-gated inwardly rectifying potassium channel KCNH2 (Homo sapiens, UniProt Q12809); conditions: hek293
Further: in other assays of this panel Not Active means under 50% inhibition at 10 µM.

Sequence of Voltage-gated inwardly rectifying potassium channel KCNH2 (Q12809 whole entry): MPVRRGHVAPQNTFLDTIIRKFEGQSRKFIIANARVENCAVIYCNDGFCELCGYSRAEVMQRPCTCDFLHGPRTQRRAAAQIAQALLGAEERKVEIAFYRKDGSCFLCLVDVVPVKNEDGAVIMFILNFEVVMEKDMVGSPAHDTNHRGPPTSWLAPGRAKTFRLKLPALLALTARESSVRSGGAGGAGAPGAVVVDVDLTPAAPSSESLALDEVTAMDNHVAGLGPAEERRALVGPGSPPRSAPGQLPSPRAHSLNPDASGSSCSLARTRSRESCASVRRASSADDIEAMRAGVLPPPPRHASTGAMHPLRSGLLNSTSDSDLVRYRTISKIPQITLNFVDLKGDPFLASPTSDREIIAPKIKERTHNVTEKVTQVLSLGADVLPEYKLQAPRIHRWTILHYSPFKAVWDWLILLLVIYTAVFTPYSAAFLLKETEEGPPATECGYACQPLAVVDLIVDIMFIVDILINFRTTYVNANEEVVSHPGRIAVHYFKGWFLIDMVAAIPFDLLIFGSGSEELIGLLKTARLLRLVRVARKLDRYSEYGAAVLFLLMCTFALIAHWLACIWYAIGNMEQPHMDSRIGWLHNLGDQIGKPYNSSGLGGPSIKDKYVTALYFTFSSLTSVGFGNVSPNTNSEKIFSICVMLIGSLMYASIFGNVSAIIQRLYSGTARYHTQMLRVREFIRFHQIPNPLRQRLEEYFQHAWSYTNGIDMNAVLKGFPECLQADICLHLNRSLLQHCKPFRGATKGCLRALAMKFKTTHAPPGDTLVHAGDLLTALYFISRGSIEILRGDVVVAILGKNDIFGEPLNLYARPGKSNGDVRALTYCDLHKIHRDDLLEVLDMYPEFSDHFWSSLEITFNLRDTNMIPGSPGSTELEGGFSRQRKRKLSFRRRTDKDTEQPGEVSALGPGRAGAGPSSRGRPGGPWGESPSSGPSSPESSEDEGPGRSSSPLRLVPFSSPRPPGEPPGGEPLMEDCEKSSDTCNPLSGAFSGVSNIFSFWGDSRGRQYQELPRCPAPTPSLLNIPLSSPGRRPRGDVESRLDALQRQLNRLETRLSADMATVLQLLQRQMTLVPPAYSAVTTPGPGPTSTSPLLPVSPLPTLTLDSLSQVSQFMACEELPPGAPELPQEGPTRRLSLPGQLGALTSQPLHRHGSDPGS
Sequence of Cytochrome P450 2C9 (P11712 whole entry): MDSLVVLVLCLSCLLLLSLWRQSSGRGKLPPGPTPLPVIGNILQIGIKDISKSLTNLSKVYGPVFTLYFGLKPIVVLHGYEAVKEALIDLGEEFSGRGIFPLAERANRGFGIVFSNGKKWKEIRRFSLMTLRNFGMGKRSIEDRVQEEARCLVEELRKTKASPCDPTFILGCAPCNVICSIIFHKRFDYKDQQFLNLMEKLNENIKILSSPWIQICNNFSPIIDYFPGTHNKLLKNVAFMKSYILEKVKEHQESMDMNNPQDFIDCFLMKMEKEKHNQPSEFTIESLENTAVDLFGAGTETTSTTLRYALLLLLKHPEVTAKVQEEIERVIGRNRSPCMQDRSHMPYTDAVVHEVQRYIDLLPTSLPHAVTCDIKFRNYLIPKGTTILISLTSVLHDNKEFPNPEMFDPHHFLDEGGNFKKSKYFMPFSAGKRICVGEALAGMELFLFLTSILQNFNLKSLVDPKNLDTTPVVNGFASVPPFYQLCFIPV
Sequence of Cytochrome P450 2D6 (P10635 whole entry): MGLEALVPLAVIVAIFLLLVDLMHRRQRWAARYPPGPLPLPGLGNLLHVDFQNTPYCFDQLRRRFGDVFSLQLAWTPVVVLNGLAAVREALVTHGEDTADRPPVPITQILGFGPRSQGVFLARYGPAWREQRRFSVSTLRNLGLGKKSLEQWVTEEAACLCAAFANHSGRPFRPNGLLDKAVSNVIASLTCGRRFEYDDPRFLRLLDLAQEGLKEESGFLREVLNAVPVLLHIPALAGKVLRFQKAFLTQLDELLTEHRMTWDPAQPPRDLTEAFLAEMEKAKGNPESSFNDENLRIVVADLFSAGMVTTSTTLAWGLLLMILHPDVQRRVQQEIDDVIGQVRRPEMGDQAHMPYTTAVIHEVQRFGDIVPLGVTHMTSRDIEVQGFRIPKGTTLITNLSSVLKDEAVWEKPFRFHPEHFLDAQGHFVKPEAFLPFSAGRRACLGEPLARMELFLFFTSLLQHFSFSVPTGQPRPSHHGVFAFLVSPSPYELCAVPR
Sequence of Cytochrome P450 2C19 (P33261 whole entry): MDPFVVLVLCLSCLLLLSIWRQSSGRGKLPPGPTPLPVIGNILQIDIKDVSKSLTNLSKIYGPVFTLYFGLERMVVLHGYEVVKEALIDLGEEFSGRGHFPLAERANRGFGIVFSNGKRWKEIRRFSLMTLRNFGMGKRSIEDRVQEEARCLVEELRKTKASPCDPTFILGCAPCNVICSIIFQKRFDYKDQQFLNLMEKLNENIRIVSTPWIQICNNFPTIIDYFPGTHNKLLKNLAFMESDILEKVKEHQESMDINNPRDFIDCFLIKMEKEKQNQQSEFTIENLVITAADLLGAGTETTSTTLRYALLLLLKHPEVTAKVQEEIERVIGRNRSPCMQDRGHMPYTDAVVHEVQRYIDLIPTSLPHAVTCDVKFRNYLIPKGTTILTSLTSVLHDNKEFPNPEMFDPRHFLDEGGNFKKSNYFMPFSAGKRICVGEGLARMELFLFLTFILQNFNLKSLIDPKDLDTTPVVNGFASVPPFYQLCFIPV
Sequence of Cytochrome P450 3A4 (P08684 whole entry): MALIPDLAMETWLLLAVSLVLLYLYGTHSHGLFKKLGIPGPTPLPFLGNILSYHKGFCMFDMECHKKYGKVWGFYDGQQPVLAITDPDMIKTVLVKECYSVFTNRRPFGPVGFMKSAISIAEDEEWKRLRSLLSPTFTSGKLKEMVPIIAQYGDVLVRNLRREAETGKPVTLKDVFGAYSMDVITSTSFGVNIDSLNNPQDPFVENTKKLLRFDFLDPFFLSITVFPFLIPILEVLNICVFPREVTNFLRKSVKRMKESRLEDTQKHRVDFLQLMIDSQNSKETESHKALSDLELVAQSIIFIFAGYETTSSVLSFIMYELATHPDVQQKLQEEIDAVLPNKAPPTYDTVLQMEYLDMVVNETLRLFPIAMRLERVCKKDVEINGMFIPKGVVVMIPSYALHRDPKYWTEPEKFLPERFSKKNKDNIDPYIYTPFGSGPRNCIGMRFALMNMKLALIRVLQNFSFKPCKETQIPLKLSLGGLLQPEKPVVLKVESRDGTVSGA
Sequence of Estrogen receptor beta (Q92731 whole entry): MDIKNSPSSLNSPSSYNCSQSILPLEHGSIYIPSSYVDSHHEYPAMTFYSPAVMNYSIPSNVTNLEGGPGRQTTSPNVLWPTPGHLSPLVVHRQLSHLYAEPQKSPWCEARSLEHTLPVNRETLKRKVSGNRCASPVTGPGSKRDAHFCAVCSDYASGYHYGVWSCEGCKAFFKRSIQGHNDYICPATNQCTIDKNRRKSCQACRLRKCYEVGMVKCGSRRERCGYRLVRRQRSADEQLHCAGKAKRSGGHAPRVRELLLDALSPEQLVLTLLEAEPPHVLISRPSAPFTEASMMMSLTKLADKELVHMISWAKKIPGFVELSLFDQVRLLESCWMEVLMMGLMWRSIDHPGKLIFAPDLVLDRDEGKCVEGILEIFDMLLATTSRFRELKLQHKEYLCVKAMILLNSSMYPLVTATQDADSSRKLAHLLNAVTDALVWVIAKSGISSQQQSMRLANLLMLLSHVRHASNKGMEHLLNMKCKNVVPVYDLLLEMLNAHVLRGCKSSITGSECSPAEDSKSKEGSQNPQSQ

COc1ccc(CCN2CCC(Nc3nc4ccccc4n3Cc3ccc(F)cc3)CC2)cc1 [ASTEMIZOLE]
Not Active: IC50 (Cytochrome P450 3A4) | Ki (Cytochrome P450 3A4) | IC50 (Glucocorticoid receptor) | IC50 (Cytochrome P450 1A2) | Ki (Cytochrome P450 1A2) | IC50 (Cytochrome P450 2C19) | Ki (Cytochrome P450 2C19) | IC50 (Cytochrome P450 2C9) | Ki (Cytochrome P450 2C9) | IC50 (Cytochrome P450 2D6) | Ki (Cytochrome P450 2D6)

CN1[C@@H]2CC[C@H]1C[C@@H](OC(=O)c1c[nH]c3ccccc13)C2 [TROPISETRON]
Not Active: IC50 (Cytochrome P450 3A4) | Ki (Cytochrome P450 3A4) | IC50 (Estrogen receptor beta) | IC50 (Cytochrome P450 1A2) | Ki (Cytochrome P450 1A2) | IC50 (Cytochrome P450 2C19) | Ki (Cytochrome P450 2C19) | IC50 (Cytochrome P450 2C9) | Ki (Cytochrome P450 2C9) | IC50 (Cytochrome P450 2D6) | Ki (Cytochrome P450 2D6) | IC50 [1] | Ki [1]

NC(=O)c1ncn([C@@H]2O[C@H](CO)[C@@H](O)[C@H]2O)n1 [RIBAVIRIN]
Not Active: IC50 (Cytochrome P450 3A4) | Ki (Cytochrome P450 3A4) | IC50 (Glucocorticoid receptor) | IC50 (Cytochrome P450 1A2) | Ki (Cytochrome P450 1A2) | IC50 (Cytochrome P450 2C19) | Ki (Cytochrome P450 2C19) | IC50 (Cytochrome P450 2D6) | Ki (Cytochrome P450 2D6) | IC50 [1] | Ki [1]

O=C(CCCN1CCC(O)(c2ccc(Cl)cc2)CC1)c1ccc(F)cc1 [HALOPERIDOL]
Not Active: IC50 (Cytochrome P450 3A4) | Ki (Cytochrome P450 3A4) | IC50 (Estrogen receptor beta) | IC50 (Glucocorticoid receptor) | IC50 (Cytochrome P450 1A2) | Ki (Cytochrome P450 1A2) | IC50 (Cytochrome P450 2C19) | Ki (Cytochrome P450 2C19) | IC50 (Cytochrome P450 2C9) | Ki (Cytochrome P450 2C9) | IC50 (Cytochrome P450 2D6) | Ki (Cytochrome P450 2D6) | IC50 [1] | Ki [1]

CN(C)CCCN1c2ccccc2CCc2ccc(Cl)cc21 [CLOMIPRAMINE]
Not Active: IC50 (Cytochrome P450 3A4) | Ki (Cytochrome P450 3A4) | IC50 (Glucocorticoid receptor) | IC50 (Cytochrome P450 1A2) | Ki (Cytochrome P450 1A2) | IC50 (Cytochrome P450 2C19) | Ki (Cytochrome P450 2C19) | IC50 (Cytochrome P450 2C9) | Ki (Cytochrome P450 2C9) | IC50 [1] | Ki [1]

CC(C)(C)NCC(O)c1cc(O)cc(O)c1 (configuration not stated) [TERBUTALINE]
Not Active: IC50 (Cytochrome P450 3A4) | Ki (Cytochrome P450 3A4) | IC50 (Cytochrome P450 1A2) | Ki (Cytochrome P450 1A2) | IC50 (Cytochrome P450 2C19) | Ki (Cytochrome P450 2C19) | IC50 (Cytochrome P450 2C9) | Ki (Cytochrome P450 2C9) | IC50 (Cytochrome P450 2D6) | Ki (Cytochrome P450 2D6) | IC50 [1] | Ki [1]

O=C1c2c(O)ccc(O)c2C(=O)c2c(NCCNCCO)ccc(NCCNCCO)c21 [MITOXANTRONE]
Not Active: IC50 (Estrogen receptor beta) | IC50 (Glucocorticoid receptor)

Nc1ccc(S(N)(=O)=O)cc1 [SULFANILAMIDE]
Not Active: IC50 (Estrogen receptor beta) | IC50 (Glucocorticoid receptor)

COc1cc(C(=O)NC2CCCNC2)cc(OC)c1OC (configuration not stated) [TROXIPIDE]
Not Active: IC50 (Cytochrome P450 3A4) | Ki (Cytochrome P450 3A4) | IC50 (Estrogen receptor beta) | IC50 (Glucocorticoid receptor) | IC50 (Cytochrome P450 1A2) | Ki (Cytochrome P450 1A2) | IC50 (Cytochrome P450 2C19) | Ki (Cytochrome P450 2C19) | IC50 (Cytochrome P450 2C9) | Ki (Cytochrome P450 2C9) | IC50 (Cytochrome P450 2D6) | Ki (Cytochrome P450 2D6) | IC50 [1] | Ki [1]

Cc1cc(NS(=O)(=O)c2ccc(N)cc2)no1 [SULFAMETHOXAZOLE]
Not Active: IC50 (Estrogen receptor beta) | IC50 (Glucocorticoid receptor)

C[C@]12Cc3c[nH]nc3C[C@@H]1CC[C@@H]1[C@@H]2CC[C@@]2(C)[C@H]1CC[C@]2(C)O [STANOZOLOL]
Not Active: IC50 (Cytochrome P450 3A4) | Ki (Cytochrome P450 3A4) | IC50 (Glucocorticoid receptor) | IC50 (Cytochrome P450 1A2) | Ki (Cytochrome P450 1A2) | IC50 [1] | Ki [1]

NCCCC[C@H](N[C@@H](CCc1ccccc1)C(=O)O)C(=O)N1CCC[C@H]1C(=O)O [LISINOPRIL ANHYDROUS]
Not Active: IC50 (Glucocorticoid receptor) | IC50 (Cytochrome P450 2C19) | Ki (Cytochrome P450 2C19) | IC50 (Cytochrome P450 2C9) | Ki (Cytochrome P450 2C9) | IC50 (Cytochrome P450 2D6) | Ki (Cytochrome P450 2D6)

CN(C)[C@@H]1C(O)=C(C(N)=O)C(=O)[C@@]2(O)C(O)=C3C(=O)c4c(O)cccc4[C@@](C)(O)[C@H]3C[C@@H]12 [TETRACYCLINE]
Not Active: IC50 (Cytochrome P450 3A4) | Ki (Cytochrome P450 3A4) | IC50 (Estrogen receptor beta) | IC50 (Glucocorticoid receptor) | IC50 (Cytochrome P450 2C19) | Ki (Cytochrome P450 2C19) | IC50 (Cytochrome P450 2D6) | Ki (Cytochrome P450 2D6) | IC50 [1] | Ki [1]

Nc1nnc(-c2cccc(Cl)c2Cl)c(N)n1 [LAMOTRIGINE]
Not Active: IC50 (Estrogen receptor beta) | IC50 (Cytochrome P450 1A2) | Ki (Cytochrome P450 1A2) | IC50 (Cytochrome P450 2C19) | Ki (Cytochrome P450 2C19) | IC50 (Cytochrome P450 2C9) | Ki (Cytochrome P450 2C9) | IC50 (Cytochrome P450 2D6) | Ki (Cytochrome P450 2D6)

COc1ccc(C(CN(C)C)C2(O)CCCCC2)cc1 (configuration not stated) [VENLAFAXINE]
Not Active: IC50 (Cytochrome P450 3A4) | Ki (Cytochrome P450 3A4) | IC50 (Cytochrome P450 1A2) | Ki (Cytochrome P450 1A2) | IC50 (Cytochrome P450 2C19) | Ki (Cytochrome P450 2C19) | IC50 (Cytochrome P450 2C9) | Ki (Cytochrome P450 2C9) | IC50 (Cytochrome P450 2D6) | Ki (Cytochrome P450 2D6) | IC50 [1] | Ki [1]

CC(C)(C)NC(=O)[C@@H]1CN(Cc2cccnc2)CCN1C[C@@H](O)C[C@@H](Cc1ccccc1)C(=O)N[C@H]1c2ccccc2C[C@H]1O.O
Not Active: IC50 (Cytochrome P450 1A2) | Ki (Cytochrome P450 1A2) | IC50 (Cytochrome P450 2C19) | Ki (Cytochrome P450 2C19) | IC50 (Cytochrome P450 2C9) | Ki (Cytochrome P450 2C9) | IC50 (Cytochrome P450 2D6) | Ki (Cytochrome P450 2D6) | IC50 [1] | Ki [1]

Clc1ccc(C(c2ccccc2Cl)C(Cl)Cl)cc1 (configuration not stated) [MITOTANE]
Not Active: IC50 (Cytochrome P450 3A4) | Ki (Cytochrome P450 3A4) | IC50 (Estrogen receptor beta) | IC50 (Glucocorticoid receptor) | IC50 (Cytochrome P450 1A2) | Ki (Cytochrome P450 1A2) | IC50 (Cytochrome P450 2C19) | Ki (Cytochrome P450 2C19) | IC50 (Cytochrome P450 2C9) | Ki (Cytochrome P450 2C9) | IC50 (Cytochrome P450 2D6) | Ki (Cytochrome P450 2D6) | IC50 [1] | Ki [1]

CN[C@@H]1[C@@H](O)[C@@H](O[C@@H]2[C@@H](O)[C@H](O[C@H]3OC(CN)=CC[C@H]3N)[C@@H](N)C[C@H]2N)OC[C@]1(C)O [SISOMICIN]
Not Active: IC50 (Glucocorticoid receptor) | IC50 [1] | Ki [1]

NNc1ccccc1 [PHENYLHYDRAZINE]
Not Active: IC50 (Estrogen receptor beta) | IC50 [1] | Ki [1]
